Data on 14 compounds can be found in PubChem BioAssay (NCI).

Structures are written as SMILES. Values joined by “and” are separate entries in the source; they are usually repeats but may differ in a detail not shown here. Equal entries are not always repeated.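 In this assay, cells in 96-well plates receive the compound at five concentrations for 48 hours. Endpoints are linearly interpolated between the surrounding concentrations. GI50 is the concentration that inhibits growth by half. TGI: concentration producing complete growth inhibition.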 A value given as a limit tells only on which side of the number the result lay.

What all share (experiment): inhibition of tumour cell growth, NCI panel, 48 h
For experiment [1], the system named is CAKI-1 renal.
Experiment [2] deals with DU-145 prostate.
Experiment [3] relates to EKVX NSCLC.
Experiment [4] relates to HL-60(TB) leukemia.
For experiment [5], the system named is MALME-3M melanoma.
Experiment [6] relates to MOLT-4 leukemia.
Experiment [7] deals with NCI/ADR-RES ovarian.
Experiment [8] relates to RXF 393 renal.
Experiment [9] has as its system SK-MEL-28 melanoma.
Experiment [10] has as its system TK-10 renal.

In the case of `COc1nc(N)nc2c1ncn2C1OC(CO)C(O)C1O` (stereo not drawn), the GI50 is 3120 µM in experiment [1]; > 5000 µM in experiment [2]; > 5000 µM in experiment [3]; 1190 µM in experiment [4]; 1150 µM in experiment [5]; 5.7 µM and 19.5 µM in [6]. In addition, the GI50 in experiment [7] is > 5000 µM; in [8] it was 2320 nM; in [9], 2280 µM; in [10] it was > 5000 µM. For the same compound, the TGI in [1] was > 5000 µM; in [2] it was > 5000 µM; in [3], > 5000 µM; in experiment [4] it was > 5000 µM; in experiment [5] it was > 5000 µM; in [6] it was 2260 µM. Further, the TGI in [7], in [9] and in experiment [10] was > 5000 µM each time.

With `COC(=O)c1cc(O)c2c(c1C(=O)OC)C[C@H]1[C@@H]3CC=C4C[C@@H](O)CC[C@]4(C)[C@H]3CC[C@]21C`, the GI50 in [1] is 2.89 µM; in experiment [2], 3.89 µM; in [3], 3.29 µM; in [4], 3.03 µM; in experiment [5], 2.71 µM; in experiment [6] it was 2.22 µM. Besides, the GI50 in experiment [7] was 3.61 µM; in experiment [8] it was 1190 nM; in [9] it was 2.71 µM; in experiment [10], 3.83 µM. The TGI in experiment [1] worked out at 9.07 µM; in experiment [2] it was 16.1 µM; in [3], 21.7 µM; in [4], 6.93 µM; in [5], 8.15 µM; in [6] it was 5.56 µM. Besides, the TGI worked out at 24.4 µM in experiment [7], 3.39 µM in experiment [8], 8.59 µM in experiment [9] and 11.8 µM in experiment [10].

With `COC(=O)Cc1ccc(Oc2cnc3cc(F)c(F)cc3n2)cc1`, the GI50 in experiment [1] is > 100 µM; in experiment [2] it was > 100 µM; in [3], 94.3 µM; in experiment [4] it was 42.5 µM; in experiment [5], > 100 µM; in experiment [6], 12.7 µM. Moreover, the GI50 is 23.8 µM in experiment [7], > 100000 nM in [8], > 100 µM in [9] and > 100 µM in [10]. Also, the TGI was > 100 µM in experiment [1]; > 100 µM in [2]; > 100 µM in experiment [3]; > 100 µM in experiment [4]; > 100 µM in experiment [5]; 32.9 µM in experiment [6]. The TGI was 81.1 µM in [7], > 100 µM in experiment [8], > 100 µM in experiment [9] and > 100 µM in experiment [10].

Consider `COc1ccc(C(=O)c2cc3c(N)c(C(=O)Nc4ccc(C)cc4)sc3nc2C)cc1`, for which the GI50 in experiment [1] is 2.35 µM; in experiment [2], 3.63 µM; in experiment [3], 5.59 µM; in [4], 2.78 µM; in experiment [5], 4.46 µM; in [6], 3.92 µM. The GI50 in experiment [7] was 2.55 µM; in experiment [8], 2480 nM; in experiment [9], 13.6 µM; in experiment [10] it was 6.81 µM. Besides, the TGI in experiment [1] is 20.4 µM; in [2], 27.4 µM; in experiment [3] it was > 100 µM; in [4] it was 10.3 µM; in experiment [5], 39.3 µM; in experiment [6], > 100 µM. The TGI in [7] was 15.4 µM; in experiment [8], 9.38 µM; in experiment [9], > 100 µM; in experiment [10], 25.2 µM.

`CN1C(=O)N[C@H]2[C@@H]3NC(=O)c4ccc(Br)n4[C@@H]3C[C@]21O`: the GI50 was 2.4 µM in experiment [1]; 0.121 µM in experiment [2]; 0.868 µM in experiment [3]; 0.0324 µM in [4]; 0.103 µM in [5]; 0.0704 µM in experiment [6]. Further, the GI50 in experiment [7] was 0.386 µM; in [8], 56.5 nM; in experiment [9] it was 0.0317 µM; in [10], 0.429 µM. Moreover, the TGI in experiment [1] is 13.1 µM; in experiment [2], 2.8 µM; in [3], 4.98 µM; in [4] it was 0.132 µM; in experiment [5], 0.731 µM; in experiment [6], 0.351 µM. Also, the TGI was 2.22 µM in experiment [7], 0.486 µM in experiment [8], 0.262 µM in [9] and 4.51 µM in experiment [10].

Regarding `Cc1nc(N2CCC3(CC2)CO[C@@H](C)[C@H]3N)c(CO)nc1Sc1ccnc(N)c1Cl`, the GI50 is 0.194 µM in [1]; 45.3 µM in [2]; 0.449 µM in experiment [3]; > 100 µM in experiment [4]; > 100 µM in experiment [5]; > 100 µM in experiment [6]. Besides, the GI50 in experiment [7] was 47.3 µM; in [8] it was 2530 nM; in [9], > 100 µM; in experiment [10], 0.336 µM. Further, the TGI in experiment [1], in experiment [2], in [3], in experiment [4], in experiment [5] and in [6] was > 100 µM each time. The TGI in experiment [7] is > 100 µM; in experiment [8], > 30.6 µM; in experiment [9] it was > 100 µM; in experiment [10], > 100 µM.

As for `Cc1cc(C)c(NC(=S)NC(=O)c2ccccc2)cc1C`, the TGI in experiment [1], in [2], in experiment [3], in experiment [4], in experiment [5] and in experiment [6] was > 100 µM throughout. Further, the TGI in experiment [7], in experiment [8], in experiment [9] and in experiment [10] was > 100 µM each time.

In the case of `Cc1ccc(C)c(C2NC(=O)c3ccccc3N2)c1` (stereo not drawn), the TGI in experiment [1] was 35.3 µM; in [2], > 50.9 µM; in experiment [3], > 100 µM; in experiment [4] it was 0.56 µM; in experiment [5], > 95.7 µM; in [6] it was 31.9 µM. Moreover, the TGI is 8.37 µM in experiment [7], 14.3 µM in [8], > 100 µM in experiment [9] and > 100 µM in experiment [10].

As to `Cc1sc2c(c1C)C(c1ccc(Cl)cc1)=N[C@@H](CC(=O)OC(C)(C)C)c1nnc(C)n1-2`, the GI50 in experiment [1] was 0.0513 µM and 0.0532 µM; in experiment [2], 13.4 µM and 8.51 µM; in [3] it was 3.17 µM and 1.18 µM; in experiment [4], 0.118 µM and 0.0301 µM; in experiment [5], 11.4 µM and 4.84 µM; in experiment [6] it was 1.61 µM and 1.81 µM. Moreover, the GI50 in [7] was 0.506 µM and 0.396 µM; in [8], 1950 nM and 737 nM; in experiment [9], 1.98 µM and 0.397 µM; in experiment [10] it was 0.154 µM and 0.0583 µM. Moreover, the TGI in experiment [1] is 18.2 µM and 15.1 µM; in [2], 33.3 µM and 22.1 µM; in [3], 20.5 µM and 18.2 µM; in [5] it was 26.4 µM and 22.1 µM; in experiment [6], 23 µM and 17.8 µM; in [7] it was 24 µM and 20.9 µM. In addition, the TGI in experiment [8] is 19 µM and 9.28 µM; in experiment [9], 20.2 µM and 15.2 µM; in [10], 12.7 µM and 13.4 µM.

Regarding `CCCC(CCC)C(=O)OCC1(CO)C/C(=C\c2ccc(F)cc2)C(=O)O1` (stereo not drawn), the GI50 in experiment [1] was 7.28 µM; in [2], 12.7 µM; in [3], 7.67 µM; in experiment [4], 0.907 µM; in [5], 12.1 µM; in [6], 3.54 µM. Besides, the GI50 in experiment [7] is 13.9 µM; in experiment [8], 15600 nM; in [9] it was 14.7 µM; in experiment [10], 6.06 µM. For the same compound, the TGI in [1] was found to be 27.4 µM; in experiment [2], 25.7 µM; in [3], 34.3 µM; in [4], 8.36 µM; in experiment [5], 27.2 µM; in experiment [6], 21.4 µM. For the same compound, the TGI in [7] was 33.4 µM; in experiment [8], 36.6 µM; in experiment [9], 28 µM; in experiment [10] it was 23.6 µM.

On to `O=C(O)C(Cl)(c1ccccc1)c1ccccc1`, for which the TGI in experiment [1], in [2], in experiment [3], in experiment [4], in experiment [5] and in [6] was > 100 µM throughout. Also, the TGI in experiment [7], in [8], in experiment [9] and in experiment [10] was > 100 µM each time.

Take `CCCCCCCCCCCCCCCCCC(=O)OCC(COC(=O)CCCN)OC(=O)CCCN` (stereo not drawn): the TGI came out at 35.5 µM in [1]; 33.7 µM in experiment [2]; 53.9 µM in [3]; 77 µM in experiment [4]; 38.2 µM in experiment [5]; 70.8 µM in [6]. Also, the TGI in experiment [7] was determined as 37 µM; in experiment [8], 32.5 µM; in experiment [9], 34.4 µM; in [10], 36.7 µM.

Consider `COc1cccc(C2c3cc4c(cc3OC(N3CCCC3)C2C)OCO4)c1O` (stereo not drawn), for which the TGI in [1] is 68.3 µM; in [2] it was > 36.9 µM; in experiment [3], > 84.9 µM; in experiment [4], 31.5 µM; in experiment [5], 58.2 µM; in experiment [6], 93 µM. Also, the TGI is 47.1 µM in experiment [7], 17.4 µM in experiment [8], 81.1 µM in experiment [9] and 40.1 µM in experiment [10].

Take `O=c1c(Cl)c(Cl)c(=O)c2sc3cc(Cl)ccc3[nH]c1=2`: the TGI is > 100 µM in experiment [1]; > 100 µM in experiment [2]; 28.7 µM in experiment [3]; 23.7 µM in experiment [4]; > 100 µM in [5]; 14.5 µM in experiment [6]. Further, the TGI in experiment [7] is 20.1 µM; in experiment [8] it was > 100 µM; in experiment [9], > 100 µM; in [10], > 100 µM.
